One experiment concerns the target STLK3 (Homo sapiens, UniProt Q9UEW8). As to the kind of experiment: biochemical.
The target of another experiment is T1, Erk7 (Homo sapiens, UniProt Q8TD08).
T1 sequence (Q8TD08 1-544): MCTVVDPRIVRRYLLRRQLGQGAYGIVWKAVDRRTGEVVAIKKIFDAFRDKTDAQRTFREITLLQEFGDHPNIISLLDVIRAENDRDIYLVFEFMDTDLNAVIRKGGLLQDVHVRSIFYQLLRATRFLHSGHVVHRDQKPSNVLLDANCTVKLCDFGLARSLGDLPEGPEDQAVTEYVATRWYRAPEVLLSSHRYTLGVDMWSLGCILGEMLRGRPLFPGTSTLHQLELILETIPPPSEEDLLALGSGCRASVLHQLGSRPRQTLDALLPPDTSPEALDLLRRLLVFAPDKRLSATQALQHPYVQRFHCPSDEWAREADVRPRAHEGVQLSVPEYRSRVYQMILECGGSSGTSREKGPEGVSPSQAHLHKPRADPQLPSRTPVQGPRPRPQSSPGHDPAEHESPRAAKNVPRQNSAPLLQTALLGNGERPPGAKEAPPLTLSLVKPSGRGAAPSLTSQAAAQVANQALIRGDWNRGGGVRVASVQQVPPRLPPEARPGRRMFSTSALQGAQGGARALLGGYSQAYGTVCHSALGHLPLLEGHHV
In words: biochemical.

The target in a further experiment is JNK3 (Homo sapiens, UniProt P53779). As to the kind of experiment: biochemical.
Sequence of JNK3 (P53779 whole entry): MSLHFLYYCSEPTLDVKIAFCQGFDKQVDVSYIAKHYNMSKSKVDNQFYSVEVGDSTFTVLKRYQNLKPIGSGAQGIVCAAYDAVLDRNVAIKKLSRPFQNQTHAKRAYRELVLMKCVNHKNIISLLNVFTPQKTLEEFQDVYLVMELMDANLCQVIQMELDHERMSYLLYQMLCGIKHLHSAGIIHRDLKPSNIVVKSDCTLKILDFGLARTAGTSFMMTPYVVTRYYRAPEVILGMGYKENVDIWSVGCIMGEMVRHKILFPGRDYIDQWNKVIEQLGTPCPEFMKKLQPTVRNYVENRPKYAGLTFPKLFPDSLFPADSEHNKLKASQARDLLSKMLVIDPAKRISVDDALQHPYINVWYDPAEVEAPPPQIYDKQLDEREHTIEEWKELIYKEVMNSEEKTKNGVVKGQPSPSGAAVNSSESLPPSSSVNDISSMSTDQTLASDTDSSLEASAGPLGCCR
The target in the next experiment is T2, TTK (Homo sapiens, UniProt P33981).
T2 sequence (P33981 1-857): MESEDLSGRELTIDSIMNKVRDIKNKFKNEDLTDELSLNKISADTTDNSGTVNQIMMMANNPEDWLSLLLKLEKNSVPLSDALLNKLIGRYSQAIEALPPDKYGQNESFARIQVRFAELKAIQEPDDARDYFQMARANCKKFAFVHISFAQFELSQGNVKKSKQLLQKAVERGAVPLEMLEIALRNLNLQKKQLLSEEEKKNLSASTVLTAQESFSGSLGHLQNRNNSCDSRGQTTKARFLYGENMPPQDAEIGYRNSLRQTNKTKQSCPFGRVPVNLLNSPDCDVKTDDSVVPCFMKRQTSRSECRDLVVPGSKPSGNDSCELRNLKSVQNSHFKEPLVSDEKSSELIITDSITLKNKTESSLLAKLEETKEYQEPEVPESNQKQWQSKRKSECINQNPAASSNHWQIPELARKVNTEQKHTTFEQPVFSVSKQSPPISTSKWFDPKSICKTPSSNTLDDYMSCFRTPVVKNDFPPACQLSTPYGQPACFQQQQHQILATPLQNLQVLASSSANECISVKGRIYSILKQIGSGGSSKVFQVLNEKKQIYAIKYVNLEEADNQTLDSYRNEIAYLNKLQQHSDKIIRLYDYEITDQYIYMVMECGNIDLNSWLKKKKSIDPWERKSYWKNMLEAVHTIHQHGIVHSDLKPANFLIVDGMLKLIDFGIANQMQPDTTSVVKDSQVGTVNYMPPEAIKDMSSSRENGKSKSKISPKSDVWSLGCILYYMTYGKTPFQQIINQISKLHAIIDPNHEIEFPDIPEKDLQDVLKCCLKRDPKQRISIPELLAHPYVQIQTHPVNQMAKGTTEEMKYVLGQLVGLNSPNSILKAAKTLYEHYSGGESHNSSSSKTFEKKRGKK
As to the kind of experiment: biochemical.

The next experiment addresses p38a (Homo sapiens, UniProt Q16539). In words: biochemical.
The target in another experiment is T3, EpHA1 (Homo sapiens, UniProt P21709).
T3 sequence (P21709 26-976): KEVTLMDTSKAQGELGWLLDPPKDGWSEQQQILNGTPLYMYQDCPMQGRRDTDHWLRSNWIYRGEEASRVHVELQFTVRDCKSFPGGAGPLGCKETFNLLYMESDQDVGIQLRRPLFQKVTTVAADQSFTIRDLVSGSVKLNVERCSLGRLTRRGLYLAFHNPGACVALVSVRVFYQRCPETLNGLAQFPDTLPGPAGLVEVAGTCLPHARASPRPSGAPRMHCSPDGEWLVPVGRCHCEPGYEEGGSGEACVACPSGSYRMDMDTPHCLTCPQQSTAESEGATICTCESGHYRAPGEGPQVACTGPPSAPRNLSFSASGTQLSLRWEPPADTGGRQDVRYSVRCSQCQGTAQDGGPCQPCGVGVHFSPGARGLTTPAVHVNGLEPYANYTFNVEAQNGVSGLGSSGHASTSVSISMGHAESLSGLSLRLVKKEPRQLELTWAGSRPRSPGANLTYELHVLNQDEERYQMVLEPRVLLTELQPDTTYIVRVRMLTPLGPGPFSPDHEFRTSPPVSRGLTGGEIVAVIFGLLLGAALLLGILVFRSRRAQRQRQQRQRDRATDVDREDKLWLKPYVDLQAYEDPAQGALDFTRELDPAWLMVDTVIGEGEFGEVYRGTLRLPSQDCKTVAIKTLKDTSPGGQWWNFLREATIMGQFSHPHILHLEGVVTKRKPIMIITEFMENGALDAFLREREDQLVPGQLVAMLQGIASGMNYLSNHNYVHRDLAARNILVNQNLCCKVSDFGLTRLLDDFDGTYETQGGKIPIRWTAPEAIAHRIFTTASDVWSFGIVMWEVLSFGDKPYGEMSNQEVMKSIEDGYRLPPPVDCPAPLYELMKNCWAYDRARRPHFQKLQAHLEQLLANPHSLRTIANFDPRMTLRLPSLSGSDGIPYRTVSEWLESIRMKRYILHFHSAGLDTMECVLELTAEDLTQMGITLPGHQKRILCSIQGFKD
In words: NanoBRET target engagement. The format is cell-based. On the technique in general: In BRET a luciferase serves as donor, and the signal depends on an acceptor being close.

Where two headings read alike, the source gives them in different places.

Sequence of p38a (Q16539 whole entry): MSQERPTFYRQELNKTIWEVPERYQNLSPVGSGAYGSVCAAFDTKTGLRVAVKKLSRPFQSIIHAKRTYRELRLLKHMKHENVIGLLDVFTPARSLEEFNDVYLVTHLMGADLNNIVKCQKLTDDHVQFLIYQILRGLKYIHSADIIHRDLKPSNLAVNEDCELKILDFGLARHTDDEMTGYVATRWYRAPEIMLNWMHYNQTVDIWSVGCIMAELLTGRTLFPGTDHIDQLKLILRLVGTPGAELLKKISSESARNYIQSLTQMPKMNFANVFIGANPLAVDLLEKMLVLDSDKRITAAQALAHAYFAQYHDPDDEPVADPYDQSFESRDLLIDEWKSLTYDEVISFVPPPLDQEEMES

Regarding `CNc1ncc2cc(-c3ccc(-c4cccc(C)n4)cc3Cl)c(=O)n(CC3OCC(N)CO3)c2n1` (stereo not drawn) [compound 2, G-5555], the “dTm G-5555 (2)” value worked out at 0.6 °C at STLK3 (10 µM, binder); 0.3 °C at Erk7 (10 µM, binder); 1.8 °C on JNK3 (10 µM, binder); 1.5 °C on TTK (10 µM, binder); 1.4 °C at p38a (10 µM, binder).

Take `CNc1ncc2cc(-c3cc(Br)ccc3Cl)c(=O)n(C[C@H]3OC[C@H](N)CO3)c2n1` [compound 7, 8-(((2r,5r)-5-Amino-1,3-dioxan-2-yl)methyl)-6-(5-bromo-2-chlorophenyl)-2-(methylamino)pyrido[2,3-d]pyrimidin-7(8H)-one]: the ΔTm at 10 µM at STLK3 (read-out: dTm 7) is 0 °C; at Erk7 (read-out: dTm 7), 0.1 °C; on JNK3 (read-out: dTm 7) it was 0.5 °C; at TTK (read-out: dTm 7) it was -0.2 °C; on p38a (read-out: dTm 7), 5.3 °C.

As for `CNc1ncc2cc(-c3cc(Br)ccc3Cl)c(=O)n(CCCCN)c2n1` [compound 6, 8-(4-Aminobutyl)-6-(5-bromo-2-chlorophenyl)-2-(methylamino)pyrido[2,3-d]pyrimidin-7(8H)-one], the ΔTm at 10 µM is 0.2 °C at STLK3 (read-out: dTm 6); 0.3 °C at Erk7 (read-out: dTm 6); 1.1 °C at JNK3 (read-out: dTm 6); 0.2 °C on TTK (read-out: dTm 6); 5.6 °C at p38a (read-out: dTm 6).

In the case of `CNc1ncc2cc(-c3cc(Cl)ccc3Cl)c(=O)n(CCCCN)c2n1` [compound 8, 8-(4-Aminobutyl)-6-(2,5-dichlorophenyl)-2-(methylamino)pyrido[2,3-d]pyrimidin-7(8H)-one], the IC50 (in general, the point on the concentration scale where inhibition reaches its midpoint) against EpHA1 worked out at 82 ± 3 nM.

Turning to `CNc1ncc2cc(-c3ccccc3Cl)c(=O)n(CCCCN)c2n1` [compound 4, 8-(4-Aminobutyl)-6-(2-chlorophenyl)-2-(methylamino)pyrido[2,3-d]pyrimidin-7(8H)-one], the ΔTm at 10 µM at STLK3 (read-out: dTm MR21 (4)) was -1.1 °C; at Erk7 (read-out: dTm MR21 (4)), 0.8 °C; at JNK3 (read-out: dTm MR21 (4)), 2.7 °C; at TTK (read-out: dTm MR21 (4)) it was 0.9 °C; at p38a (read-out: dTm MR21 (4)) it was 8.8 °C. The same compound yielded a 50% inhibitory concentration (IC50) against EpHA1 of 12 ± 2 nM.

For the compound `CNc1ncc2cc(-c3cc(F)ccc3F)c(=O)n(CCCCN)c2n1` [compound 5, 8-(4-Aminobutyl)-6-(2,5-difluorophenyl)-2-(methylamino)pyrido[2,3-d]pyrimidin-7(8H)-one], the ΔTm at 10 µM was 2.1 °C on STLK3 (read-out: dTm MR22 (5)), -1.5 °C on Erk7 (read-out: dTm MR22 (5)), -2.6 °C at TTK (read-out: dTm MR22 (5)) and -0.6 °C on p38a (read-out: dTm MR22 (5)). This compound also displayed a 50% inhibitory concentration (IC50) at EpHA1 (intact mode, HEK293T, 37 °C, 2 h, tracer displacement) of 145 ± 17 nM.
